# According to patent US5280548A, “Emission based fiber optic sensors for pH and carbon dioxide analysis” (BOC Health Care, Inc., priority 1993, dated 1994):
# “Also recorded” adds a separate entry of the source. Like-named read-outs stand apart in the source and are kept apart here.
# How the values were obtained:
# [1] = 25° C.; cited from earlier work
# [2] = Emission lifetime measurement; type: physicochemical; settings: for lifetime (τ): 25° C.
# From the text: 1969, 31, 1-13], as a standard.
# [3] = pKa determination from pH-dependent emission; type: physicochemical
# Description: (§1) The effect of temperature on the parameters describing the pH dye was determined. […] The emission spectra were measured as a function of pH at 20° C., 25° C., 30° C., 37° C., and 45° C. […] The relative emission intensity, B, was defined as the ratio of the emission from the base tautomer at 650 nm to the emission from the isosbestic point. The relative emission, A, was defined as the ratio of the isosbestic point emission to the emission from the acid tautomer at 650 nm. The quantities A and B define the upper and lower asymptotes on the response vs. pH sigmoidal curve. The pKa, A, and B were determined for the series of emission spectra at each temperature by fitting the emission intensity at 650 nm to the theoretical response vs. pH curve using non-linear regression.
# [4] = Effect of temperature on emission parameters A and B of the pH dye; type: physicochemical; settings: for A (relative emission, lower asymptote of response vs. pH) / B (relative emission intensity, base tautomer / isosbestic point): 650 nm
# Description: as §1
# [5] = for emission yield (Φ): 25° C.
# Description: Emission spectra were recorded on either a ISS Greg-200 spectrofluorometer or a single-fiber spectrofluorometer discussed below. Absorption spectra were recorded on a Perkin-Elmer Lambda 5 spectrophotometer. Lifetime measurements were recorded with the ISS Greg-200 spectrofluorometer using excitation by a Coherent 700 Dye Laser with Rhodamine 6G synchronously pumped with a frequency doubled Coherent Antares mode-locked Nd:YAG laser. The mode-locker was driven by a Marconi Instruments 2022a frequency synthesizer locked in phase to another Marconi Instruments 2022a frequency synthesizer which modulated the photomultiplier tubes on the Greg-200 instrument.
# Emission yields were corrected for instrument response and measured using tetraphenylporphyrin in benzene, .PHI.=0.11 [Seybold, Paul G.; Gouterman, Martin J. Mol. Spectrosc. 1969, 31, 1-13], as a standard. Lifetime measurements were calibrated with scattered light, .tau.=0. […] The output from the laser was measured before and after the experiment to ensure constant excitation intensity.
# [6] = Absorption spectra; type: physicochemical; settings: 25° C.
# Description: Absorption spectra were recorded on a Perkin-Elmer Lambda 5 spectrophotometer.
# [7] = Solubility observations; type: physicochemical
# Description: The polymers prepared above were soluble in acetone, dioxane, tetrahydrofuran, ethanol, and dimethylacetamide. A concentrated solution of the polymer in one of these solvents was prepared and applied to the distal tip of a methacrylate optical fiber, the tip of which had been prepared by cleaving normal to its longitudinal axis with a fresh scalpel blade. The sensors were allowed to dry overnight before use.
# [8] = aqueous solution, 540 nm excitation
compound,measurement,setting,value
O=C=O [carbon dioxide],pKa1,[1],6.35
same,pKa2,[1],10.33
same,solubility in water,[1],0.759 ml carbon dioxide @ STP/ml water
seminaphthorhodaflor-1-carboxylate [SNARF-1C],"emission lifetime, in words",[2],The emission lifetimes are insensitive to concentration; also recorded: The lifetime of the acid tautomer of SNARF-1C is shorter than that for the base tautomer
same,lifetime (τ),"[2]; acid form, Conc. 10e-6 M",.80 ns
same,lifetime (τ),"[2]; acid form, Conc. 10e-5 M",.80 ns
same,lifetime (τ),"[2]; acid form, Conc. 10e-4 M",.78 ns
same,lifetime (τ),"[2]; base form, Conc. 10e-6 M",1.38 ns
same,lifetime (τ),"[2]; base form, Conc. 10e-5 M",1.41 ns
same,lifetime (τ),"[2]; base form, Conc. 10e-4 M",1.26 ns
same,"lifetime, acid tautomer",[2]; acid tautomer,800 psec
same,"lifetime of acid tautomer, difference from previous measurement",[2]; vs. Whitaker et al. 1991,200 psec
same,pKa,[3]; 20° C. (Table 2),7.79 ± .03
same,pKa,[3]; 25° C. (Table 1),7.58 ± 0.04
same,pKa,[3]; 25° C. (Table 2),7.58 ± .01
same,pKa,[3]; 30° C. (Table 2),7.57 ± .03
same,pKa,[3]; 37° C. (Table 1),7.44 ± 0.05
same,pKa,[3]; 37° C. (Table 2),7.44 ± .04
same,pKa,[3]; 45° C. (Table 2),7.43 ± .06
same,"A and B vs. temperature, in words",[4]; 20-45° C.,independent of temperature
same,"A (relative emission, lower asymptote of response vs. pH)",[4]; 20° C.,.721 ± .062
same,"B (relative emission intensity, base tautomer / isosbestic point)",[4]; 20° C.,5.07 ± .11
same,"A (relative emission, lower asymptote of response vs. pH)",[4]; 25° C.,.628 ± .061
same,"B (relative emission intensity, base tautomer / isosbestic point)",[4]; 25° C.,4.22 ± .10
same,"A (relative emission, lower asymptote of response vs. pH)",[4]; 30° C.,.678 ± .072
same,"B (relative emission intensity, base tautomer / isosbestic point)",[4]; 30° C.,4.95 ± .12
same,"A (relative emission, lower asymptote of response vs. pH)",[4]; 37° C.,.702 ± .069
same,"B (relative emission intensity, base tautomer / isosbestic point)",[4]; 37° C.,4.10 ± .11
same,"A (relative emission, lower asymptote of response vs. pH)",[4]; 45° C.,.674 ± .127
same,"B (relative emission intensity, base tautomer / isosbestic point)",[4]; 45° C.,5.48 ± .19
same,emission yield (Φ),"[5]; acid form, Conc. 10e-6 M",.12
same,emission yield (Φ),"[5]; acid form, Conc. 10e-5 M",.12
same,emission yield (Φ),"[5]; acid form, Conc. 10e-4 M",.018
same,emission yield (Φ),"[5]; base form, Conc. 10e-6 M",.2
same,emission yield (Φ),"[5]; base form, Conc. 10e-5 M",.22
same,emission yield (Φ),"[5]; base form, Conc. 10e-4 M",.082
same,"emission maximum, acid peak",[5]; [8],590 nm
same,"emission maximum, base peak",[5]; [8],640 nm
same,isosbestic point,[5]; emission spectra as a function of pH,605 nm
same,"emission spectra, in words",[5]; shift of spectra,do not differ from the previously published spectra; also recorded: did not shift with temperature
same,lambda max,"[6]; acid form, Conc. 10e-6 M",551 nm
same,ε,"[6]; acid form, Conc. 10e-6 M",19920 M⁻¹ cm⁻¹
same,lambda max,"[6]; acid form, Conc. 10e-5 M",553 nm
same,ε,"[6]; acid form, Conc. 10e-5 M",19380 M⁻¹ cm⁻¹
same,lambda max,"[6]; acid form, Conc. 10e-4 M",549 nm
same,ε,"[6]; acid form, Conc. 10e-4 M",12650 M⁻¹ cm⁻¹
same,lambda max,"[6]; base form, Conc. 10e-6 M",577 nm
same,ε,"[6]; base form, Conc. 10e-6 M",38220 M⁻¹ cm⁻¹
same,lambda max,"[6]; base form, Conc. 10e-5 M",576 nm
same,ε,"[6]; base form, Conc. 10e-5 M",37510 M⁻¹ cm⁻¹
same,lambda max,"[6]; base form, Conc. 10e-4 M",572 nm
same,ε,"[6]; base form, Conc. 10e-4 M",27770 M⁻¹ cm⁻¹
same,"solubility, in words",[7],The potassium salt of the acid was much easier to dissolve
